Assay results from US20090069565A1, “NEW INDOLE DERIVATIVES AS FACTOR XA INHIBITORS” (priority 2001, published 2009).

What follows are compounds tested against human factor Xa (Homo sapiens, UniProt P00742) (assay: Factor Xa assay (chromogenic, substrate S-2765)). Conditions: not given.
Format: biochemical
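Further: purified enzyme preincubated with inhibitor for 10 min before substrate addition, final reaction volume 100 µl.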

Chain of human factor Xa (P00742 235-488 limits assumed): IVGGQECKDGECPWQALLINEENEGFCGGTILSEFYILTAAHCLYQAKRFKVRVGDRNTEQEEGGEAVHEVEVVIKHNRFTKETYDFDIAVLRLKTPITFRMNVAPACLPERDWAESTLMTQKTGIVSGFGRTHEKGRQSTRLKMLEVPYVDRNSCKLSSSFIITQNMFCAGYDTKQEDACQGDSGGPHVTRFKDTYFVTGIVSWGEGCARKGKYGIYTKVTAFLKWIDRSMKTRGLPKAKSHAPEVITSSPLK
Chain of human factor Xa (P00742 41-179 partner limits assumed): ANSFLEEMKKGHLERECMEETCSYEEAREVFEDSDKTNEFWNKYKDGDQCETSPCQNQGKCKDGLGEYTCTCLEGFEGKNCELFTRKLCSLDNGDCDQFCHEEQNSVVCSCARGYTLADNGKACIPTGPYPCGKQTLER

**Q.** `CC(C)N1CCC(NC(=O)c2cc3cccc(Cl)c3n2Cc2cc(-c3ccc(Cl)s3)on2)CC1` [Example 20] was tested. Which Ki did it give?
**A.** 7 nM

Same assay, conditions: inhibition constant for factor Xa; purified enzyme 0.5 nM, substrate S-2765 140 μM, 25° C., pH 7.8; Ki=IC50/{1+(substrate concentration/Km)}; read-out: Ki(FXa)

**Q.** `CC(C)N1CCC(NC(=O)c2cc3cc(S(C)(=O)=O)ccc3n2Cc2cc(-c3ccc(Cl)s3)on2)CC1` [Example 2] was tested. Which Ki did it give?
**A.** 20 nM

**Q.** `CC(C)N1CCC(NC(=O)c2cc3cc([N+](=O)[O-])ccc3n2Cc2cc(-c3ccc(Cl)s3)on2)CC1` [Example 3] was tested. Which Ki did it give?
**A.** 1 nM

**Q.** With `CC(C)N1CCC(NC(=O)c2cc3cc(OCc4ccccc4)ccc3n2Cc2cc(-c3ccc(Cl)s3)on2)CC1` [Example 4] as the compound, how does the Ki read?
**A.** 834 nM

**Q.** `CC(C)N1CCC(NC(=O)c2cc3cc(Cl)ccc3n2Cc2cc(-c3ccc(Cl)s3)on2)CC1` [Example 5] was tested. Which Ki did it give?
**A.** 5 nM

**Q.** For `Cc1ccc2c(c1)cc(C(=O)NC1CCN(C(C)C)CC1)n2Cc1cc(-c2ccc(Cl)s2)on1` [Example 8], which Ki is on record?
**A.** 9 nM

**Q.** With `CC(C)N1CCC(NC(=O)c2cc3cccc([N+](=O)[O-])c3n2Cc2cc(-c3ccc(Cl)s3)on2)CC1` [Example 11] as the compound, how does the Ki read?
**A.** 0.1 nM

**Q.** Which Ki does the source give for `CC(C)N1CCC(NC(=O)c2c(-c3ccccc3)c3ccccc3n2Cc2cc(-c3ccc(Cl)s3)on2)CC1` [Example 16] here?
**A.** 55 nM

**Q.** For `CC(C)N1CCC(NC(=O)c2cc3ccc(Cl)cc3n2Cc2cc(-c3ccc(Cl)s3)on2)CC1` [Example 21], which Ki is on record?
**A.** 7 nM

**Q.** For `CC(C)N1CCC(NC(=O)c2cc3cc(F)ccc3n2Cc2cc(-c3ccc(Cl)s3)on2)CC1` [Example 23], which Ki is on record?
**A.** 3 nM

**Q.** With `O=C(NC1CCN(c2ccncc2)CC1)c1cc2ccccc2n1Cc1cc(-c2ccc(Cl)s2)on1` [Example 28, 1-[5-(5-Chloro-thiophen-2-yl)-isoxazol-3-ylmethyl]-1H-indole-2-carboxylic acid (3,4,5,6-tetrahydro-2H-[1,4′]bipyridinyl-4-yl)-amide] as the compound, how does the Ki read?
**A.** 14 nM

**Q.** Which Ki does the source give for `O=C(c1cc2ccccc2n1Cc1cc(-c2ccc(Cl)s2)on1)N1CCC(Nc2ccncc2)CC1` [Example 31, {1-[5-(5-Chloro-thiophen-2-yl)-isoxazol-3-ylmethyl]-1H-indol-2-yl}-[4-(pyridin-4-ylamino)-piperidin-1-yl]-methanone] here?
**A.** 18 nM

**Q.** Which Ki does the source give for `CCN1CCC(NC(=O)c2cc3ccccc3n2Cc2cc(-c3ccc(Cl)s3)on2)CC1` [Example 36, 1-[5-(5-Chloro-thiophen-2-yl)-isoxazol-3-ylmethyl]-1H-indole-2-carboxylic acid (1-ethyl-piperidin-4-yl)-amide] here?
**A.** 18 nM

**Q.** How did the Ki turn out when `O=C(NCC1CCN(c2ccncc2)CC1)c1cc2ccccc2n1Cc1cc(-c2ccc(Cl)s2)on1` [Example 47, 1-[5-(5-Chloro-thiophen-2-yl)-isoxazol-3-ylmethyl]-1H-indole-2-carboxylic acid (3,4,5,6-tetrahydro-2H-[1,4′]bipyridinyl-4-ylmethyl)-amide] was run?
**A.** 64 nM

**Q.** For `O=C(NC1CCN(C2CC2)CC1)c1cc2ccccc2n1Cc1cc(-c2ccc(Cl)s2)on1` [Example 48, 1-[5-(5-Chloro-thiophen-2-yl)-isoxazol-3-ylmethyl]-1H-indole-2-carboxylic acid (1-cyclopropyl-piperidin-4-yl)-amide], which Ki is on record?
**A.** 27 nM

Same assay, conditions: read-out: Ki(FXa)

**Q.** How did the Ki turn out when `COc1ccc2c(c1)cc(C(=O)NC1CCN(C(C)C)CC1)n2Cc1cc(-c2ccc(Cl)s2)on1` [Example 6] was run?
**A.** 13 nM

**Q.** How did the Ki turn out when `COc1ccc2cc(C(=O)NC3CCN(C(C)C)CC3)n(Cc3cc(-c4ccc(Cl)s4)on3)c2c1` [Example 7] was run?
**A.** 4 nM

**Q.** How did the Ki turn out when `COc1cc(OC)c2cc(C(=O)NC3CCN(C(C)C)CC3)n(Cc3cc(-c4ccc(Cl)s4)on3)c2c1` [Example 9] was run?
**A.** 3 nM

**Q.** Which Ki does the source give for `COc1cc2cc(C(=O)NC3CCN(C(C)C)CC3)n(Cc3cc(-c4ccc(Cl)s4)on3)c2cc1OC` [Example 10] here?
**A.** 182 nM

**Q.** Which Ki does the source give for `CC(C)N1CCC(NC(=O)c2cc3cc(OC(F)(F)F)ccc3n2Cc2cc(-c3ccc(Cl)s3)on2)CC1` [Example 12] here?
**A.** 114 nM

**Q.** With `CC(C)N1CCC(NC(=O)c2cc3cccc(NC(=O)C(C)(C)C)c3n2Cc2cc(-c3ccc(Cl)s3)on2)CC1` [Example 14] as the compound, how does the Ki read?
**A.** 1720 nM

**Q.** `COc1cccc2c1cc(C(=O)NC1CCN(C(C)C)CC1)n2Cc1cc(-c2ccc(Cl)s2)on1` [Example 15] was tested. Which Ki did it give?
**A.** 3.5 nM

**Q.** How did the Ki turn out when `COc1cc2cc(C(=O)NC3CCN(C(C)C)CC3)n(Cc3cc(-c4ccc(Cl)s4)on3)c2cc1O` [Example 17] was run?
**A.** 1970 nM

**Q.** Which Ki does the source give for `CC(C)N1CCC(NC(=O)c2cc3c(F)cc(F)cc3n2Cc2cc(-c3ccc(Cl)s3)on2)CC1` [Example 18] here?
**A.** 16 nM

**Q.** `CC(C)N1CCC(NC(=O)c2cc3c(OCc4ccccc4)cccc3n2Cc2cc(-c3ccc(Cl)s3)on2)CC1` [Example 19] was tested. Which Ki did it give?
**A.** 50 nM

**Q.** How did the Ki turn out when `CCc1ccc2c(c1)cc(C(=O)NC1CCN(C(C)C)CC1)n2Cc1cc(-c2ccc(Cl)s2)on1` [Example 22] was run?
**A.** 217 nM

**Q.** How did the Ki turn out when `CC(C)N1CCC(NC(=O)c2c(-c3ccccc3)c3cc([N+](=O)[O-])ccc3n2Cc2cc(-c3ccc(Cl)s3)on2)CC1` [Example 24] was run?
**A.** 132 nM

**Q.** `CC(C)N1CCC(NC(=O)c2c(-c3ccccc3)c3cc(Cl)ccc3n2Cc2cc(-c3ccc(Cl)s3)on2)CC1` [Example 25] was tested. Which Ki did it give?
**A.** 336 nM

**Q.** `CC(C)N1CCC(NC(=O)c2cc3cc(F)cc(F)c3n2Cc2cc(-c3ccc(Cl)s3)on2)CC1` [Example 26] was tested. Which Ki did it give?
**A.** 0.1 nM

**Q.** With `CC(C)N1CCC(NC(=O)c2cc3cc([N+](=O)[O-])cc([N+](=O)[O-])c3n2Cc2cc(-c3ccc(Cl)s3)on2)CC1` [Example 27] as the compound, how does the Ki read?
**A.** 0.2 nM

**Q.** `Cc1cccc2cc(C(=O)NC3CCN(c4ccncc4)CC3)n(Cc3cc(-c4ccc(Cl)s4)on3)c12` [Example 29, 1-[5-(5-Chloro-thiophen-2-yl)-isoxazol-3-ylmethyl]-7-methyl-1H-indole-2-carboxylic acid (3,4,5,6-tetrahydro-2H-[1,4′]bipyridinyl-4-yl)-amide] was tested. Which Ki did it give?
**A.** 19 nM

**Q.** Which Ki does the source give for `O=C(NC1CCN(c2ccncc2)CC1)c1cc2cc([N+](=O)[O-])ccc2n1Cc1cc(-c2ccc(Cl)s2)on1` [Example 30, 1-[5-(5-Chloro-thiophen-2-yl)-isoxazol-3-ylmethyl]-5-nitro-1H-indole-2-carboxylic acid (3,4,5,6-tetrahydro-2H-[1,4′]bipyridinyl-4-yl)-amide] here?
**A.** 25 nM

**Q.** For `O=C(c1cc2cc([N+](=O)[O-])ccc2n1Cc1cc(-c2ccc(Cl)s2)on1)N1CCC(Nc2ccncc2)CC1` [Example 32, {1-[5-(5-Chloro-thiophen-2-yl)-isoxazol-3-ylmethyl]-5-nitro-1H-indol-2-yl}-[4-(pyridin-4-ylamino)-piperidin-1-yl]-methanone], which Ki is on record?
**A.** 37 nM

**Q.** How did the Ki turn out when `Cc1cccc2cc(C(=O)N3CCC(Nc4ccncc4)CC3)n(Cc3cc(-c4ccc(Cl)s4)on3)c12` [Example 33, {1-[5-(5-Chloro-thiophen-2-yl)-isoxazol-3-ylmethyl]-7-methyl-1H-indol-2-yl}-[4-(pyridin-4-ylamino)-piperidin-1-yl]-methanone] was run?
**A.** 11 nM

**Q.** With `Cc1cccc2cc(C(=O)N3CCC(NC(C)C)CC3)n(Cc3cc(-c4ccc(Cl)s4)on3)c12` [Example 35, {1-[5-(5-Chloro-thiophen-2-yl)-isoxazol-3-ylmethyl]-7-methyl-1H-indol-2-yl}-(4-isopropylamino-piperidin-1-yl)-methanone] as the compound, how does the Ki read?
**A.** 502 nM

**Q.** How did the Ki turn out when `CCN1CCC(NC(=O)c2cc3cccc(C)c3n2Cc2cc(-c3ccc(Cl)s3)on2)CC1` [Example 37, 1-[5-(5-Chloro-thiophen-2-yl)-isoxazol-3-ylmethyl]-7-methyl-1H-indole-2-carboxylic acid (1-ethyl-piperidin-4-yl)-amide] was run?
**A.** 3 nM

**Q.** `O=C(c1cc2ccccc2n1Cc1cc(-c2ccc(Cl)s2)on1)N1CCC(N2CCCC2)CC1` [Example 38, {1-[5-(5-Chloro-thiophen-2-yl)-isoxazol-3-ylmethyl]-1H-indol-2-yl}-(4-pyrrolidin-1-yl-piperidin-1-yl)-methanone] was tested. Which Ki did it give?
**A.** 701 nM

**Q.** How did the Ki turn out when `CN1CCC(N2CCN(C(=O)c3cc4ccccc4n3Cc3cc(-c4ccc(Cl)s4)on3)CC2)CC1` [Example 39, {1-[5-(5-Chloro-thiophen-2-yl)-isoxazol-3-ylmethyl]-1H-indol-2-yl}-[4-(1-methyl-piperidin-4-yl)-piperazin-1-yl]-methanone] was run?
**A.** 2000 nM

**Q.** How did the Ki turn out when `O=C(NCC1CC(c2ccncc2)=NO1)c1cc2ccccc2n1Cc1cc(-c2ccc(Cl)s2)on1` (centres unmarked) [Example 41, 1-[5-(5-Chloro-thiophen-2-yl)-isoxazol-3-ylmethyl]-1H-indole-2-carboxylic acid (3-pyridin-4-yl-4,5-dihydro-isoxazol-5-ylmethyl)-amide] was run?
**A.** 1030 nM

**Q.** `O=C(c1cc2ccccc2n1Cc1cc(-c2ccc(Cl)s2)on1)N1CCN(Cc2ccncc2)CC1` [Example 43, {1-[5-(5-Chloro-thiophen-2-yl)-isoxazol-3-ylmethyl]-1H-indol-2-yl}-(4-pyridin-4-ylmethyl-piperazin-1-yl)-methanone] was tested. Which Ki did it give?
**A.** 504 nM

**Q.** How did the Ki turn out when `COc1cccc(Cn2c(C(=O)NCC3CCN(c4ccncc4)CC3)cc3ccccc32)c1` [Example 55] was run?
**A.** 1700 nM

**Q.** For `COc1cccc(Cn2c(C(=O)NC3CCN(C(C)C)CC3)cc3c(OC)cccc32)c1` [Example 66, 4-Methoxy-1-(3-methoxy-benzyl)-1H-indole-2-carboxylic acid (1-isopropyl-piperidin-4-yl)-amide], which Ki is on record?
**A.** 43 nM

**Q.** Which Ki does the source give for `COc1cccc(Cn2c(C(=O)NC3CCN(C(C)C)CC3)cc3cc(Cl)ccc32)c1` [Example 67, 5-Chloro-1-(3-methoxy-benzyl)-1H-indole-2-carboxylic acid (1-isopropyl-piperidin-4-yl)-amide] here?
**A.** 187 nM

**Q.** With `COc1cccc(Cn2c(C(=O)NC3CCN(C(C)C)CC3)cc3cc(C)ccc32)c1` [Example 69, 1-(3-Methoxy-benzyl)-5-methyl-1H-indole-2-carboxylic acid (1-isopropyl-piperidin-4-yl)-amide] as the compound, how does the Ki read?
**A.** 159 nM

**Q.** With `COc1cccc(Cn2c(C(=O)NC3CCN(C(C)C)CC3)cc3cc(OCc4ccccc4)ccc32)c1` [Example 70] as the compound, how does the Ki read?
**A.** 114 nM

**Q.** With `COc1cccc(Cn2c(C(=O)NC3CCN(C(C)C)CC3)cc3cc([N+](=O)[O-])ccc32)c1` [Example 71, 1-(3-Methoxy-benzyl)-5-nitro-1H-indole-2-carboxylic acid (1-isopropyl-piperidin-4-yl)-amide] as the compound, how does the Ki read?
**A.** 277 nM

**Q.** How did the Ki turn out when `COc1cccc(Cn2c(C(=O)NC3CCN(C(C)C)CC3)cc3cc(OC)ccc32)c1` [Example 72, 5-Methoxy-1-(3-methoxy-benzyl)-1H-indole-2-carboxylic acid (1-isopropyl-piperidin-4-yl)-amide] was run?
**A.** 167 nM
